Reference: ChEMBL document CHEMBL1145911, “Rational design and synthesis of androgen receptor-targeted nonsteroidal anti-androgen ligands for the tumor-specific delivery of a doxorubicin-formaldehyde conjugate” (J Med Chem, 2003)

Molecular target: T1, Androgen receptor (Homo sapiens, UniProt P10275)
T1 sequence (P10275 whole entry): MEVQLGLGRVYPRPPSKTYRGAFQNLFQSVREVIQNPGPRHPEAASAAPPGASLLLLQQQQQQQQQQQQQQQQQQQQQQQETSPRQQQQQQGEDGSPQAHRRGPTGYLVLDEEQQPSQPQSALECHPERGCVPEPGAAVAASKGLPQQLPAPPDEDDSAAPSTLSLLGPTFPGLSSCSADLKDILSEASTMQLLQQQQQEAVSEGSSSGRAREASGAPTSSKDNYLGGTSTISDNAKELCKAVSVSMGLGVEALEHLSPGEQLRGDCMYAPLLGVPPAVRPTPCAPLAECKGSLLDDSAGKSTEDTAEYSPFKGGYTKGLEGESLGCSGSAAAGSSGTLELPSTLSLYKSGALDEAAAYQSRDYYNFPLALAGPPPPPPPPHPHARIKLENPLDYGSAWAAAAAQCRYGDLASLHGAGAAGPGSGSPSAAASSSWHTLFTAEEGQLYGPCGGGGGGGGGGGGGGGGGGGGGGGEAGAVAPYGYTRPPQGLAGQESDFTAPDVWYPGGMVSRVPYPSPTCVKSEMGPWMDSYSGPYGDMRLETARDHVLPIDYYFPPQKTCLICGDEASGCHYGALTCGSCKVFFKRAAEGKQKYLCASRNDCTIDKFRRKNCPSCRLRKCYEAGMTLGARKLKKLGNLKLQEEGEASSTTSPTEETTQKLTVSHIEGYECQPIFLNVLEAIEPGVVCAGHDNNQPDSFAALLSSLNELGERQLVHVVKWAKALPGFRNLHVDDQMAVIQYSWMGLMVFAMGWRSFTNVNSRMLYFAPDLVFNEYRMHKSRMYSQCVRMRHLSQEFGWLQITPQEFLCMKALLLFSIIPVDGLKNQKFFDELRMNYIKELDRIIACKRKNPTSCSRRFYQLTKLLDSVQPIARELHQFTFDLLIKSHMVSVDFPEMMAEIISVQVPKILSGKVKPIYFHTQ
Assay: biochemical

CC1(C)C(=O)N(c2ccc(C#N)c(C(F)(F)F)c2)C(=O)N1CCOCCN1CCN(CCOCc2ccc(O)c(C(N)=O)c2)CC1
IC50: 346 nM

CC1(C)C(=O)N(c2ccc(C#N)c(C(F)(F)F)c2)C(=O)N1CCCCN1CCN(CCOCc2ccc(O)c(C(N)=O)c2)CC1
IC50: > 1000 nM

COc1cccc2c1C(=O)c1c(O)c3c(c(O)c1C2=O)C[C@@](O)(C(=O)CO)C[C@@H]3OC1C[C@H](NCNC(=O)c2cc(COCC#CCN3C(=O)N(c4ccc(C#N)c(C(F)(F)F)c4)C(=O)C3(C)C)ccc2O)[C@H](O)[C@H](C)O1 (stereo partly drawn)
IC50: 90 nM
